Experiments:
[1] = system: Plasmodium falciparum; assay: NOVARTIS: Inhibition of Plasmodium falciparum 3D7 (drug-susceptible) proliferation in erythrocyte-based infection assay; assay type: functional, organism-based; conditions: Plasmodium falciparum, 3D7
[2] = NOVARTIS: Cytotoxicity against human hepatocellular carcinoma cell line (Huh7); assay type: toxicity, cell-based, Huh-7; conditions: Huh7 cells (hepatocellular carcinoma cell line)
[3] = system: Plasmodium falciparum; assay: NOVARTIS: Inhibition of Plasmodium falciparum W2 (drug-resistant) proliferation in erythrocyte-based infection assay; assay type: functional, organism-based; conditions: Plasmodium falciparum, W2; read-out: EC50

Row | Structure (SMILES) | EC50 [1] | CC50 [2] | EC50 [3]
1 | O=C1Nc2ccccc2C12Nc1ccccc1-c1nc3ccccc3n12 (configuration not stated) | 1.09 µM | > 100 µM | 0.502 µM
2 | CCc1ccc(C(=O)N2CCCn3cccc3C2c2ccc(C(C)(C)C)cc2)cc1 (configuration not stated) | > 1.25 µM | > 10 µM | 1.16 µM
3 | Cn1cc(S(=O)(=O)c2cccc(Cl)c2)c(=O)c2cc(F)c(N3CCCCC3)cc21 | 1.03 µM | > 10 µM | > 0.372 µM
4 | COCCn1c(=S)[nH]c2cc(C(=O)NCCc3ccc(S(N)(=O)=O)cc3)ccc2c1=O | > 1.08 µM | > 10 µM | > 1.25 µM
5 | COc1ccc(C(NC(=O)COc2ccccc2)c2cc(Cl)c3cccnc3c2O)cc1OC (configuration not stated) | 4.66 µM | 18.5 µM | 3.08 µM
6 | COc1ccc(-c2cn3c([n+]2-c2ccccc2)SCC3)cc1 | 0.582 µM | > 100 µM | 0.709 µM
7 | C=CCOC(=O)C1=C(C)N=C2SCCC(=O)N2C1c1ccc(OC(=O)c2ccco2)cc1 (configuration not stated) | > 12.4 µM | > 100 µM | > 11.9 µM
8 | CCOc1ccc(N=C2NC(=O)S/C2=C2/C(=O)Nc3ccc(Br)cc32)cc1 | > 1.25 µM | > 10 µM | > 0.72 µM
9 | CCOC(=O)c1c(C)n(Cc2ccccc2)c2c1cc(O)c1c2c(-c2ccccc2)nn1-c1ccccc1 | 1.06 µM | > 100 µM | 0.345 µM
10 | CC(C)CC1C(c2ccc(Cl)cc2)C(C(=O)c2ccccc2)C2(C(=O)Nc3ccc(Br)cc32)N1C(=O)NCc1ccccc1 (configuration not stated) | 0.775 µM | > 10 µM | > 1.02 µM
11 | Cc1cc(C)c2nc(SCC(=O)Nc3ccc4c(c3)OCCO4)cc(C)c2c1 | > 1.25 µM | > 10 µM | > 0.942 µM
12 | CC1(c2ccccc2)CC(c2ccccc2)=Nc2nonc2N1 (configuration not stated) | 0.586 µM | > 10 µM | 1.17 µM
13 | COc1ccc(C2CC(=O)C3=C(C2)NC(C)=C(C(=O)OC2CCCC2)C3c2ccc(F)cc2)cc1 (configuration not stated) | 0.0986 µM | > 100 µM | 0.0416 µM
14 | O=C1CCC(c2ccc(Cl)c(Cl)c2)c2ccc(O)cc21 (configuration not stated) | 0.449 µM | > 9.27 µM | > 0.914 µM
15 | Cc1nc(Oc2ccc3ccc(=O)oc3c2)c2c3c(sc2n1)CCCCC3 | 2.3 µM | > 10 µM | > 1.25 µM
16 | O=C(c1c2c(nc3ccccc13)CCC2)N1CCc2ccccc21 | 1.94 µM | > 11.7 µM | < 0.0367 µM
17 | CCCCN(CC)CCNC(=O)C1c2ccccc2C(=O)N(Cc2ccc(F)cc2)C1c1ccc(OC)cc1 (configuration not stated) | 2.27 µM | > 100 µM | 0.195 µM

Row | Structure (SMILES) | EC50 [1] | CC50 [2] | EC50 [3]
18 | COc1ccc(OCC(=O)Nc2c(C)n(C)n(-c3ccccc3)c2=O)cc1 | > 1.25 µM | > 10 µM | > 1.17 µM
19 | CCCNC(=O)Cn1nc(C)n2c(cc3sccc32)c1=O | > 1.25 µM | > 10 µM | > 0.971 µM
20 | Cc1c(C(=O)Nc2ccccc2)sc2ncn(Cc3ccccc3Cl)c(=O)c12 | 5.4 µM | > 100 µM | 2.42 µM
21 | Cc1ccccc1N(CC(=O)NCC1CCCO1)C(=O)c1snc(C(N)=O)c1N (configuration not stated) | > 0.706 µM | > 2.4 µM | > 1.25 µM
22 | C[C@H](Nc1cncc(-c2ccc(Cl)cc2)n1)c1ccccc1 | 0.0537 µM | 71 µM | 0.0562 µM
23 | CCOc1cc2c(cc1OCC)C(c1cc(OC)c(O)cc1Cl)NCC2 (configuration not stated) | 0.362 µM | 74.2 µM | 0.0958 µM
24 | O=C(Nc1ccc(C(=O)Nc2cccc(C3=NCCN3)c2)cc1)c1ccc(C2=NCCN2)cc1 | 0.193 µM | > 100 µM | 0.128 µM
25 | CCOC(=O)c1nc2nc(C)cc(O)n2n1 | > 0.739 µM | > 10 µM | > 0.94 µM
26 | CCC(C)(C)c1ccc(OCC(O)CNCc2ccccc2)c(C(C)(C)CC)c1 (configuration not stated) | 0.361 µM | 9.2 µM | 0.1 µM
27 | O=C1C2C(C(=O)N1c1ccc(Br)cc1)C1C=CC2C12CC2 (configuration not stated) | > 12.5 µM | > 100 µM | 3.98 µM
28 | CN(C)CCNc1cc(-c2ccc3ccccc3c2)nc2ccccc12 | 0.81 µM | > 100 µM | 0.729 µM
29 | CN(C)CCNC(=O)c1cc2c(-c3ccc(Cl)cc3)nn(C)c2s1 | 0.339 µM | 64.6 µM | 0.422 µM
30 | COc1ccc2[nH]cc(CCNC(=O)Oc3ccccc3)c2c1 | > 1.29 µM | > 10 µM | 0.604 µM
31 | Nc1nc(N)c2cc(S(=O)(=O)c3ccc4ccccc4c3)ccc2n1 | 0.0973 µM | 49.5 µM | 1.71 µM
32 | Clc1ccc2[nH]c3c(NCCC4=CCCCC4)ncnc3c2c1 | 0.988 µM | 15.8 µM | 2 µM
33 | CC1=C(C(=O)OC(C)C)C(c2ccc([N+](=O)[O-])cc2)C2=C(CC(c3ccc(Cl)cc3)CC2=O)N1 (configuration not stated) | 1.19 µM | > 100 µM | 0.0563 µM
34 | O=C(Nc1ccc(-n2cnnn2)cc1)C1CCN(Cc2ccc(OC(F)F)cc2)CC1 | 1.59 µM | 46.3 µM | 0.266 µM

Source: ChEMBL document CHEMBL1156829 (Proc Natl Acad Sci U S A, 2008)
